Measurements as given in patent publication US8829007B2 (priority 2009, dated 2014).

tested on: influenza A virus (A/PR/8/34); assay: microbe, parasite or virus in culture; type: cell-based; conditions: Influenza A virus, PR/8, MDCK, MDCK cells infected with A/PR/8/34; survival of infected cells; class symbols; read-out: IC50 (mean all)

Structure (SMILES) | IC50
O=C(OCC1CCOC1)N1CC[C@H](Nc2nc(-c3c[nH]c4ncc(Cl)cc34)ncc2F)C1 (stereo partly shown) [Compound 484] | 5 to 20 µM
CC(=O)N1CCC[C@H](Nc2ccnc(-c3c[nH]c4ncc(Cl)cc34)n2)C1 [Compound 485] | 5 to 20 µM
COC(=O)CCC(=O)N1CCCC(Nc2ccnc(-c3c[nH]c4ncc(Cl)cc34)n2)C1 [Compound 487, (S)-methyl 4-(3-((2-(5-chloro-1H-pyrrolo[2,3-b]pyridin-3-yl)pyrimidin-4-ylamino)piperidin-1-yl)-4-oxobutanoate] | 5 to 20 µM
CC(C)CC(=O)N1CCC[C@H](Nc2ccnc(-c3c[nH]c4ncc(Cl)cc34)n2)C1 [Compound 489] | < 5 µM
COCC(=O)N1CCC[C@H](CNc2ccnc(-c3c[nH]c4ncc(Cl)cc34)n2)C1 [Compound 491, (R)-1-(3-((2-(5-chloro-1H-pyrrolo[2,3-b]pyridin-3-yl)pyrimidin-4-ylamino)methyl)piperidin-1-yl)-2-methoxyethanone] | < 5 µM
CC(C)CC(=O)N1CCC[C@H](CNc2ccnc(-c3c[nH]c4ncc(Cl)cc34)n2)C1 [Compound 494, (R)-1-(3-((2-(5-chloro-1H-pyrrolo[2,3-b]pyridin-3-yl)pyrimidin-4-ylamino)methyl)piperidin-1-yl)-3-methylbutan-1-one] | 5 to 20 µM
CS(=O)(=O)N1CCCC(Nc2nc(-c3c[nH]c4ncc(Cl)cc34)ncc2F)CC1 (stereo not shown) [Compound 496, N-(2-(5-chloro-1H-pyrrolo[2,3-b]pyridin-3-yl)-5-fluoropyrimidin-4-yl)-1-(methylsulfonyl)azepan-4-amine] | 5 to 20 µM

same assay, conditions: Influenza A virus, PR/8, MDCK, mean all; A/PR/8/34 infected MDCK cells, CPE assay; read-out: IC50

Structure (SMILES) | IC50
O=S(=O)(CC1CCCC1)N1CC(Nc2nc(-c3c[nH]c4ncc(Cl)cc34)ncc2F)C1 [Compound 469, 2-(5-chloro-1H-pyrrolo[2,3-b]pyridin-3-yl)-N-(1-(cyclopentyl-methylsulfonyl)azetidin-3-yl)-5-fluoropyrimidin-4-amine] | > 20 µM
CC1(C(=O)N2CC[C@@H](Nc3nc(-c4c[nH]c5ncc(Cl)cc45)ncc3F)C2)COC1 [Compound 473] | 5 to 20 µM
COC(=O)N1CC[C@H](Nc2nc(-c3c[nH]c4ncc(Cl)cc34)ncc2F)C1 [Compound 476] | 5 to 20 µM
CC(C)OC(=O)N1CC[C@H](Nc2nc(-c3c[nH]c4ncc(Cl)cc34)ncc2F)C1 [Compound 477] | > 20 µM
O=S(=O)(CC1CCCC1)N1CC[C@H](Nc2nc(-c3c[nH]c4ncc(Cl)cc34)ncc2F)C1 [Compound 479, (S)-2-(5-chloro-1H-pyrrolo[2,3-b]pyridin-3-yl)-N-(1-(cyclopentylmethylsulfonyl)pyrrolidin-3-yl)-5-fluoropyrimidin-4-amine] | > 20 µM
CC(=O)N1CC[C@H](Nc2nc(-c3c[nH]c4ncc(Cl)cc34)ncc2F)C1 [Compound 480] | < 5 µM
COCC(=O)N1CC[C@H](Nc2nc(-c3c[nH]c4ncc(Cl)cc34)ncc2F)C1 [Compound 481] | 5 to 20 µM
CC1(C(=O)N2CC[C@H](Nc3nc(-c4c[nH]c5ncc(Cl)cc45)ncc3F)C2)COC1 [Compound 482] | < 5 µM
O=C(C1CNCCO1)N1CC[C@H](Nc2nc(-c3c[nH]c4ncc(Cl)cc34)ncc2F)C1 (stereo partly shown) [Compound 483] | > 20 µM

same assay, conditions: MDCK cells infected with A/PR/8/34; survival of infected cells; class symbols; read-out: IC50 (mean all)

Structure (SMILES) | IC50
COC(=O)CCC(=O)N1CCCC(CNc2ccnc(-c3c[nH]c4ncc(Cl)cc34)n2)C1 (stereo not shown) [Compound 492] | 5 to 20 µM

same assay, conditions: mean all; A/PR/8/34 infected MDCK cells, CPE assay; read-out: IC50

Structure (SMILES) | IC50
CC(=O)N1CCC(Nc2nc(-c3c[nH]c4ncc(Cl)cc34)ncc2F)C1 (stereo not shown) [Compound 471] | < 5 µM
O=C(OCC1CCOC1)N1CCC(Nc2nc(-c3c[nH]c4ncc(Cl)cc34)ncc2F)C1 (stereo not shown) [Compound 475] | > 20 µM

same assay, conditions: read-out: IC50

Structure (SMILES) | IC50
O=C(C1CCOC1)N1CC[C@H](Nc2nc(-c3c[nH]c4ncc(Cl)cc34)ncc2F)C1 (stereo partly shown) [Compound 478] | 5 to 20 µM

same assay, conditions: read-out: IC50 (mean all)

Structure (SMILES) | IC50
COCC(=O)N1CCC[C@H](Nc2nc(-c3c[nH]c4ncc(Cl)cc34)ncc2F)C1 [Compound 486] | 5 to 20 µM
COCCC(=O)N1CCC[C@H](Nc2nc(-c3c[nH]c4ncc(Cl)cc34)ncc2F)C1 [Compound 488] | > 20 µM
